In article PMC4057667, “Study on Biopharmaceutics Classification and Oral Bioavailability of a Novel Multikinase Inhibitor NCE for Cancer Therapy” (International Journal of Molecular Sciences, 2014):

Columns and labels:
[1] = system: rat duodenum, jejunum and ileum; assay: In situ single-pass intestinal perfusion (SPIP); settings: perfusate 40 μg/mL, n = 6
Description: The blank perfusion buffer solution was composed of 9.80 g Hanks’ Balanced Salts, 5.96 g 4-2(Hydroxyethyl) piperazine-1-ethanesulfonic acid (HEPES), 1.16 g NaCl, 3.50 g D-glucose and 0.37 g NaHCO3. The pH was adjusted to 6.5. […] The perfusate containing 2 μg/mL of NCE with and without 0.4% SDS was applied to three intestinal segments to investigate the effect of SDS on intestinal absorption of NCE. To examine whether there was any concentration-dependent characteristics or site specific absorption of NCE, 2, 20 and 40 μg/mL of NCE containing 0.4% SDS (w/v) were also studied in three intestinal segments using the same rat perfusion model.
Male Sprague-Dawley rats (170–230 g) were obtained from the Laboratory Animal Center, Sichuan University (Chengdu, China). Prior to the experiment, animals were fasted for at least 18 h with free access to water. All animal studies were approved and supervised by the State Key Laboratory of Biotherapy Animal Care and Use Committee (Sichuan University, Chengdu, Sichuan, China). Then, single pass intestine perfusion studies were conducted according to the literature. In brief, rats were anaesthetized by pentobarbital sodium (i.p., […]) and placed on a homeothermic pad to maintain their body temperature. After making a 3–4 cm midline abdominal incision, the small intestinal was exposed. The duodenum, jejunum and ileum were isolated as follows: duodenum segment beginning from 1 cm away from pylorus, jejunum segment beginning from 20 cm away from pylorus and ileum segment beginning at the site 20 cm upwards caecum. Each intestinal segment was approximately 10 cm long. After removing the intestinal content by rinsing with warm saline, two glass cannulas were inserted to the distal and proximal end of the segment. Then, the intestinal segments of interest were connected to a perfusion pump and the outlet tubing was placed at the same height as the inlet. The intestine was handled carefully to maintain an intact blood supply.
The segments were rinsed with perfusate at the rate of 1.0 mL/min for 10 min, and then perfused at the rate of 0.2 mL/min for 30 min to maintain a steady-state. The time was set zero immediately when the perfusion started. The outlet perfused samples were collected every 15 min until 120 min. Then, the samples were centrifuged at 1.3 × 10^4 rpm for 10 min. The supernatant was analyzed by HPLC. The length of tested segments was measured and rats were euthanized after experiment.
Peff is the quantitative parameter estimating the passage rate of a solute across a membrane. It was calculated from the steady-state concentration of NCE in the perfusate. The drug concentration in the perfusate was corrected for changes in the water flux. Meanwhile, the density corrected gravimetric method was employed to calculate the net water flux across the incubated intestinal segment. A known volume of perfusate was weighed using an electronic weighing balance to determine the density of the collected samples. After correcting for water flux, the drug concentration in the effluent perfusate (Cout(cor)), was calculated as following.
(3) Cout(cor)=Cout×Qout/Qin
where Cout is the concentration of tested drug in the effluent perfusates, Qin and Qout are the inlet and outlet flow rate (mL/min), respectively, which are adjusted for liquid density (mL/min).
The calculation of permeability across rat intestinal segment was performed from the intestinal perfusate samples collected over 15–120 min (steady state) using the following equation).
(4) Peff=-Qin ln(Cout(cor)/Cin)/2πrl

[2] = system: rat duodenum, jejunum and ileum; set-up: method as in PMID 15296954, PMID 8893271; settings: reference compounds; cited from earlier work
[3] = system: rats; set-up: method as in ref 24 = [24]; 24. Ma N. Wang J. Xu F. Li J. Li Y. Xiao H. Xiang D. Studies on absorptive characters of resveratrol derivative (e)-3,5,4′-trimethoxystilbene in rat intestine Chin. J. Pharm. Anal 2010 30 586 591; settings: in perfusion buffer, preliminary experiments; cited from earlier work

In the case of `Cn1c(=O)c2[nH]cnc2n(C)c1=O` [Theophylline, reference compound], the Peff ([1]; Duodenum) is reported as 0.74 ± 0.02 ^* 10^−4 cm/s, the Peff ([1]; Ileum) is reported as 0.63 ± 0.04 ^N.S. ^* 10^−4 cm/s and the Peff ([1]; Jejunum) is reported as 0.64 ± 0.01 ^N.S. ^* 10^−4 cm/s.

For `CNC(=C[N+](=O)[O-])NCCSCc1ccc(CN(C)C)o1` [Ranitidine, reference compound], the Peff ([1]; Duodenum) was 0.15 ± 0.07 ^* 10^−4 cm/s, the Peff ([1]; Ileum) was 0.17 ± 0.02 ^N.S ^* 10^−4 cm/s and the Peff ([1]; Jejunum) was 0.19 ± 0.07 ^N.S. ^* 10^−4 cm/s. For the same molecule, the permeability class [2] was “low permeability”.

For `CCCCCCCCCCCCOS(=O)(=O)[O-].[Na+]` [SDS, sodium dodecyl sulfate], the “concentration toxic to rats” value [3] is given as “higher than 1%”.
